Experimental data published in the supplement of paper PMC10627819.

Columns and labels:
B. subtilis 168 [1] = experiment: fitness (endpoint OD595 vs no drug) (fraction); higher = more growth
Outline: (§1)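 Fitness compares growth at the stationary-phase transition with the robust mean of no-drug control wells, as a ratio of optical densities. The ratio is capped at 1. Wells of 384-well plates held 30 µl, or 55 µl for S. pneumoniae, inoculated at OD595 0.01. Readings at OD595 every 30 min for 14 h at 37 °C were corrected against the first reading.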

S. aureus Newman [2] = experiment: as above
Outline: as §1

S. aureus DSM 20231 = experiment: Bliss interaction score (quartile over a dose matrix) (fitness difference); higher = more antagonism (negative = synergy)
Outline: (§2)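 The Bliss score takes observed fitness and subtracts the expected fitness, calculated as a product of single-drug fitness values. Those single-drug values were inferred from the combination data. Fitness is OD595 at entry into stationary phase divided by the plate's robust no-drug mean, capped at 1, and the score is summarised by quartiles across technical, biological and donor/recipient replicates.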

B. subtilis 168 [3] = experiment: as above
Outline: as §2

S. pneumoniae D39V = experiment: as above
Outline: as §2

S. aureus Newman [4] = experiment: as above
Outline: as §2
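For Bliss interaction score (quartile over a dose matrix) in this document: first quartile when negative (synergy) and third quartile when positive (antagonism).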
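For fitness (endpoint OD595 vs no drug) in this document: OD595 on entry to stationary phase over no-drug wells; at most 1.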

CC[C@H]1OC(=O)[C@H](C)[C@@H](O[C@H]2C[C@@](C)(OC)[C@@H](O)[C@H](C)O2)[C@H](C)[C@@H](O[C@@H]2O[C@H](C)C[C@H](N(C)C)[C@H]2O)[C@](C)(O)C[C@@H](C)CN(C)[C@H](C)[C@@H](O)[C@]1(C)O [Azithromycin] + CC1=C(C(=O)O)N2C(=O)[C@@H](NC(=O)[C@H](N)c3ccccc3)[C@H]2SC1 [Cephalexin]
fitness
Conditions | partner 0.125 µg/mL | partner 0.25 µg/mL | partner 0.5 µg/mL | partner 1 µg/mL
B. subtilis 168 [1], first compound 0.25 µg/mL | 0.856 | 0.936 | 0.899 | ≥ 1
B. subtilis 168 [1], first compound 0.5 µg/mL | 0.823 | 0.845 | 0.849 | 0.867
B. subtilis 168 [1], first compound 1 µg/mL | 0.543 | – | – | –
S. aureus Newman [2], first compound 0.125 µg/mL | – | 0.892 | 0.918 | 0.907
S. aureus Newman [2], first compound 0.25 µg/mL | – | 0.893 | 0.915 | 0.913
S. aureus Newman [2], first compound 0.5 µg/mL | – | 0.739 | 0.719 | 0.728

Conditions | Bliss interaction score
B. subtilis 168 [3] | 0.0757
S. aureus DSM 20231 | -0.0843
S. aureus Newman [4] | 0.0763
S. pneumoniae D39V | -0.0716

CC[C@H]1OC(=O)[C@H](C)[C@@H](O[C@H]2C[C@@](C)(OC)[C@@H](O)[C@H](C)O2)[C@H](C)[C@@H](O[C@@H]2O[C@H](C)C[C@H](N(C)C)[C@H]2O)[C@](C)(O)C[C@@H](C)CN(C)[C@H](C)[C@@H](O)[C@]1(C)O [Azithromycin] + CC(C1CCC(C(O1)OC2C(CC(C(C2O)OC3C(C(C(CO3)(C)O)NC)O)N)N)N)NC [Gentamicin]
fitness, main component drawn
Conditions | first compound 0.125 µg/mL | first compound 0.25 µg/mL | first compound 0.5 µg/mL
B. subtilis 168 [1], partner 0.0625 µg/mL | – | 0.847 | –
S. aureus Newman [2], partner 0.5 µg/mL | 0.879 | 0.851 | 0.742
S. aureus Newman [2], partner 1 µg/mL | 0.899 | 0.901 | 0.827
S. aureus Newman [2], partner 2 µg/mL | 0.942 | 0.958 | 0.79

fitness, one replicate, main component drawn
Conditions | partner 0.0625 µg/mL | partner 0.125 µg/mL | partner 0.25 µg/mL | partner 0.375 µg/mL | partner 0.75 µg/mL | partner 1.5 µg/mL
B. subtilis 168 [1], first compound 2 µg/mL | 0.482 | 0.322 | 0.337 | – | – | –
S. aureus Newman [2], first compound 0.125 µg/mL | – | – | – | 0.946 | 0.936 | 0.954
S. aureus Newman [2], first compound 0.25 µg/mL | – | – | – | ≥ 1 | 0.943 | 0.911
S. aureus Newman [2], first compound 0.5 µg/mL | – | – | – | 0.711 | 0.62 | 0.571

main component drawn
Conditions | Bliss interaction score
B. subtilis 168 [3] | 0.305
S. aureus DSM 20231 | 0.106
S. aureus Newman [4] | 0.118
S. pneumoniae D39V | -0.0659

CC[C@H]1OC(=O)[C@H](C)[C@@H](O[C@H]2C[C@@](C)(OC)[C@@H](O)[C@H](C)O2)[C@H](C)[C@@H](O[C@@H]2O[C@H](C)C[C@H](N(C)C)[C@H]2O)[C@](C)(O)C[C@@H](C)CN(C)[C@H](C)[C@@H](O)[C@]1(C)O [Azithromycin] + CC[C@H](C)[C@H](N)C1=N[C@H](C(=O)N[C@@H](CC(C)C)C(=O)N[C@H](CCC(=O)O)C(=O)N[C@H](C(=O)N[C@H]2CCCCNC(=O)[C@H](CC(N)=O)NC(=O)[C@@H](CC(=O)O)NC(=O)[C@H](Cc3cnc[nH]3)NC(=O)[C@@H](Cc3ccccc3)NC(=O)[C@H]([C@@H](C)CC)NC(=O)[C@@H](CCCN)NC2=O)[C@@H](C)CC)CS1 [Bacitracin]
fitness, main component drawn
Conditions | partner 18.75 µg/mL | partner 37.5 µg/mL | partner 75 µg/mL | partner 150 µg/mL
B. subtilis 168 [1], first compound 0.25 µg/mL | – | 0.907 | 0.845 | 0.837
B. subtilis 168 [1], first compound 0.5 µg/mL | – | 0.773 | 0.76 | –
S. aureus Newman [2], first compound 0.125 µg/mL | 0.654 | – | 0.0145 | –
S. aureus Newman [2], first compound 0.25 µg/mL | – | 0.0979 | 0.0091 | –
S. aureus Newman [2], first compound 0.5 µg/mL | – | 0.0136 | 0.0029 | –

B. subtilis 168 [1], first compound 2 µg/mL, one replicate, main component drawn
Conditions | fitness
partner 37.5 µg/mL | 0.0502
partner 75 µg/mL | 0.0262
partner 150 µg/mL | 0.0177

main component drawn
Conditions | Bliss interaction score
B. subtilis 168 [3] | 0.0819
S. aureus DSM 20231 | -0.0556
S. aureus Newman [4] | -0.101
S. pneumoniae D39V | 0.0418

CC[C@H]1OC(=O)[C@H](C)[C@@H](O[C@H]2C[C@@](C)(OC)[C@@H](O)[C@H](C)O2)[C@H](C)[C@@H](O[C@@H]2O[C@H](C)C[C@H](N(C)C)[C@H]2O)[C@](C)(O)C[C@@H](C)CN(C)[C@H](C)[C@@H](O)[C@]1(C)O [Azithromycin] + CN(C)c1cc(NC(=O)CNC(C)(C)C)c(O)c2c1C[C@H]1C[C@H]3[C@H](N(C)C)C(O)=C(C(N)=O)C(=O)[C@@]3(O)C(O)=C1C2=O [Tigecycline]
fitness
Conditions | partner 0.039 µg/mL | partner 0.078 µg/mL | partner 0.156 µg/mL
B. subtilis 168 [1], first compound 0.25 µg/mL | 0.979 | 0.873 | 0.887
B. subtilis 168 [1], first compound 0.5 µg/mL | 0.886 | 0.811 | 0.839
S. aureus Newman [2], first compound 0.125 µg/mL | 0.892 | 0.908 | 0.855
S. aureus Newman [2], first compound 0.25 µg/mL | 0.88 | 0.868 | 0.912
S. aureus Newman [2], first compound 0.5 µg/mL | 0.641 | 0.666 | 0.622

fitness, B. subtilis 168 [1], one replicate
Conditions | first compound 0.5 µg/mL | first compound 1 µg/mL | first compound 2 µg/mL
partner 0.125 µg/mL | 0.894 | 0.947 | 0.614
partner 0.25 µg/mL | 0.889 | 0.871 | 0.48
partner 0.5 µg/mL | 0.941 | 0.826 | 0.332

Conditions | Bliss interaction score
B. subtilis 168 [3] | 0.0692
S. aureus DSM 20231 | -0.0977
S. aureus Newman [4] | -0.0615
S. pneumoniae D39V | -0.0801

CC[C@H]1OC(=O)[C@H](C)[C@@H](O[C@H]2C[C@@](C)(OC)[C@@H](O)[C@H](C)O2)[C@H](C)[C@@H](O[C@@H]2O[C@H](C)C[C@H](N(C)C)[C@H]2O)[C@](C)(O)C[C@@H](C)CN(C)[C@H](C)[C@@H](O)[C@]1(C)O [Azithromycin] + CN[C@@H]1[C@H](O[C@H]2[C@H](O[C@H]3[C@H](O)[C@@H](O)[C@H](N=C(N)N)[C@@H](O)[C@@H]3N=C(N)N)O[C@@H](C)[C@]2(O)C=O)O[C@@H](CO)[C@H](O)[C@H]1O [Streptomycin]
fitness
Conditions | first compound 0.125 µg/mL | first compound 0.25 µg/mL | first compound 0.5 µg/mL
B. subtilis 168 [1], partner 2 µg/mL | – | 0.943 | 0.843
B. subtilis 168 [1], partner 4 µg/mL | – | 0.807 | 0.739
S. aureus Newman [2], partner 1 µg/mL | 0.881 | 0.849 | –

Conditions | Bliss interaction score
B. subtilis 168 [3] | 0.206
S. aureus DSM 20231 | 0.108
S. aureus Newman [4] | 0.102
S. pneumoniae D39V | -0.0455

CC[C@H]1OC(=O)[C@H](C)[C@@H](O[C@H]2C[C@@](C)(OC)[C@@H](O)[C@H](C)O2)[C@H](C)[C@@H](O[C@@H]2O[C@H](C)C[C@H](N(C)C)[C@H]2O)[C@](C)(O)C[C@@H](C)CN(C)[C@H](C)[C@@H](O)[C@]1(C)O [Azithromycin] + CO/N=C(\C(=O)N[C@@H]1C(=O)N2C(C(=O)O)=C(COC(N)=O)CS[C@H]12)c1ccco1 [Cefuroxime]
fitness, one replicate
Conditions | partner 0.04875 µg/mL | partner 0.0975 µg/mL | partner 0.195 µg/mL | partner 1.562 µg/mL | partner 3.125 µg/mL | partner 6.25 µg/mL
B. subtilis 168 [1], first compound 0.25 µg/mL | 0.867 | 0.81 | – | 0.293 | 0.262 | 0.222
B. subtilis 168 [1], first compound 0.5 µg/mL | – | – | – | 0.242 | 0.146 | 0.0811
B. subtilis 168 [1], first compound 1 µg/mL | – | – | – | 0.0319 | 0.0369 | 0.0154
B. subtilis 168 [1], first compound 2 µg/mL | 0.0565 | 0.0607 | 0.0393 | – | – | –
S. aureus Newman [2], first compound 0.125 µg/mL | 0.967 | 0.894 | 0.876 | – | – | –
S. aureus Newman [2], first compound 0.25 µg/mL | 0.897 | 0.878 | 0.802 | – | – | –
S. aureus Newman [2], first compound 0.5 µg/mL | 0.653 | 0.612 | 0.547 | – | – | –

fitness, B. subtilis 168 [1]
Conditions | partner 0.04875 µg/mL | partner 0.0975 µg/mL | partner 0.195 µg/mL | partner 0.39 µg/mL | partner 0.78 µg/mL
first compound 0.25 µg/mL | – | – | 0.556 | 0.353 | 0.305
first compound 0.5 µg/mL | 0.708 | 0.609 | – | 0.35 | 0.312
first compound 1 µg/mL | 0.463 | 0.361 | 0.215 | 0.171 | 0.16

Conditions | Bliss interaction score
B. subtilis 168 [3] | 0.0595
S. aureus DSM 20231 | -0.24
S. aureus Newman [4] | 0.0821
S. pneumoniae D39V | 0.0571

CC[C@H]1OC(=O)[C@H](C)[C@@H](O[C@H]2C[C@@](C)(OC)[C@@H](O)[C@H](C)O2)[C@H](C)[C@@H](O[C@@H]2O[C@H](C)C[C@H](N(C)C)[C@H]2O)[C@](C)(O)C[C@@H](C)CN(C)[C@H](C)[C@@H](O)[C@]1(C)O [Azithromycin] + O=C(O)c1cn(C2CC2)c2cc(N3CCNCC3)c(F)cc2c1=O [Ciprofloxacin]
fitness
Conditions | first compound 0.125 µg/mL | first compound 0.25 µg/mL | first compound 0.5 µg/mL
B. subtilis 168 [1], partner 0.0098 µg/mL | – | 0.886 | –
B. subtilis 168 [1], partner 0.0195 µg/mL | – | 0.781 | 0.702
S. aureus Newman [2], partner 0.0375 µg/mL | 0.684 | 0.697 | 0.547
S. aureus Newman [2], partner 0.075 µg/mL | 0.631 | 0.697 | 0.581

B. subtilis 168 [1], first compound 2 µg/mL, one replicate
Conditions | fitness
partner 0.0098 µg/mL | 0.428
partner 0.0195 µg/mL | 0.279
partner 0.039 µg/mL | 0.258

Conditions | Bliss interaction score
B. subtilis 168 [3] | 0.228
S. aureus DSM 20231 | 0.105
S. aureus Newman [4] | 0.102
S. pneumoniae D39V | -0.0524
